From patent US20260209180A1, “PROTEASE INHIBITORS FOR TREATING OR PREVENTING CORONAVIRUS INFECTION” (Merck Sharp & Dohme LLC, priority 2023, published 2026)

Target: SARS2 coronavirus 3CL protease (Severe acute respiratory syndrome coronavirus 2, UniProt P0DTD1)
Experiment: SARS2 Coronavirus 3CL Protease Assay (FRET)
Assay type: biochemical
Settings: 5 nM protease pre-incubated with compound 30 minutes; 15 uM peptide substrate; 4 h room temperature; read-out: FRET Potency (nM); IC50 values in the SARS2 3CLPro FRET assay
Procedure: The enzymatic activity of SARS2 coronavirus 3CL protease was determined in a FRET (fluorescence resonance energy transfer)-based assay measuring the cleavage of a peptide substrate by recombinantly expressed and purified enzyme. Cleavage of the peptide SEQ ID NO: 1 (CPC Scientific) by SARS2 3CL protease was measured in reaction buffer (50 mM Hepes pH 7.5, 0.01% Triton X-100, 0.01% BSA, 2 mM DTT). […] Room temperature reactions (4 h) were quenched by addition of a high dose of inhibitor and read on an appropriate plate reader (excitation wavelength=495 nm, emission wavelength=520 nm). Data were analyzed by a standard 4 parameter fit to determine IC50 values.

SMILES: CNC(=O)C(=O)[C@H](CCC(C)(F)F)NC(=O)c1cc(Cl)ccc1NC(=O)C12CC(C(F)(F)F)(C1)C2 [Example 22, N-[4-chloro-2-[[(1S)-4,4-difluoro-1-[2-(methylamino)-2-oxo-acetyl]pentyl]carbamoyl]phenyl]-3-(trifluoromethyl)bicyclo[1.1.1] pentane-1-carboxamide]
- IC50: 13 nM

SMILES: CNC(=O)C(=O)[C@H](CCC(C)(F)F)NC(=O)c1cc(Cl)ccc1NC(=O)[C@H]1CC1(F)F [Example 23, 5-chloro-2-[[(1R)-2,2-difluorocyclopropanecarbonyl]amino]-N-[(1S)-4,4-difluoro-1-[2-(methylamino)-2-oxo-acetyl]pentyl]benzamide]
- IC50: 13.2 nM

SMILES: CNC(=O)C(=O)[C@H](CCC(C)(F)F)NC(=O)c1cc(Cl)cnc1NC(=O)c1cccc(F)c1 [Example 24, 5-chloro-N-[(1S)-4,4-difluoro-1-[2-(methylamino)-2-oxo-acetyl]pentyl]-2-[(3-fluorobenzoyl)amino]pyridine-3-carboxamide]
- IC50: 14 nM

SMILES: CNC(=O)C(=O)[C@H](CCC(C)(F)F)NC(=O)c1cc(Cl)ccc1NC(=O)[C@@H]1CCc2nccc(=O)n21 [Example 25, (6S)-N-[4-chloro-2-[[(1S)-4,4-difluoro-1-[2-(methylamino)-2-oxo-acetyl]pentyl]carbamoyl]phenyl]-4-oxo-7,8-dihydro-6H-pyrrolo[1,2-a]pyrimidine-6-carboxamide]
- IC50: 14.8 nM

SMILES: CNC(=O)C(=O)[C@H](CCC(C)(F)F)NC(=O)c1cc(Cl)ccc1NC(=O)C1CC12CCOCC2 (stereo partly drawn) [Example 26, N-[4-chloro-2-[[(1S)-4,4-difluoro-1-[2-(methylamino)-2-oxo-acetyl]pentyl]carbamoyl]phenyl]-6-oxaspiro[2.5]octane-2-carboxamide]
- IC50: 15.1 nM

SMILES: CC(F)(F)CC[C@H](NC(=O)c1cc(Cl)cnc1NC(=O)C12CC(C(F)(F)F)(C1)C2)C(=O)C(=O)NC1CC1 [Example 27, 5-chloro-N-[(1S)-1-[2-(cyclopropylamino)-2-oxo-acetyl]-4,4-difluoro-pentyl]-2-[[3-(trifluoromethyl)bicyclo[1.1.1]pentane-1-carbonyl]amino]pyridine-3-carboxamide]
- IC50: 17.4 nM

SMILES: CNC(=O)C(=O)[C@H](CCC(C)(F)F)NC(=O)c1cc(F)cnc1NC(=O)C1CC(F)(F)C1 [Example 28, 2-[(3,3-difluorocyclobutanecarbonyl)amino]-N-[(1S)-4,4-difluoro-1-[2-(methylamino)-2-oxo-acetyl]pentyl]-5-fluoro-pyridine-3-carboxamide]
- IC50: 19.8 nM

SMILES: CC(F)(F)CC[C@H](NC(=O)c1cc(Cl)cnc1NC(=O)c1cccc(F)c1)C(=O)C(=O)NC1CC1 [Example 29, 5-chloro-N-[(1S)-1-[2-(cyclopropylamino)-2-oxo-acetyl]-4,4-difluoro-pentyl]-2-[(3-fluorobenzoyl)amino]pyridine-3-carboxamide]
- IC50: 20.4 nM

SMILES: CNC(=O)C(=O)[C@H](CCC(C)(F)F)NC(=O)c1cc(Cl)ccc1NC(=O)C1CC1C(F)(F)F (stereo partly drawn) [Example 30, 5-chloro-N-[(1S)-4,4-difluoro-1-[2-(methylamino)-2-oxo-acctyl]pentyl]-2-[[2-(trifluoromethyl)cyclopropane-carbonyl]amino]benzamide]
- IC50: 20.7 nM

SMILES: CNC(=O)C(=O)[C@H](CCC(C)(F)F)NC(=O)c1cc(Cl)ccc1NC(=O)C1CC1C(F)(F)F (stereo partly drawn) [Example 32, 5-chloro-N-[(1S)-4,4-difluoro-1-[2-(methylamino)-2-oxo-acetyl]pentyl]-2-[[2-(trifluoromethyl)cyclopropane-carbonyl]amino]benzamide]
- IC50: 21.3 nM

SMILES: CNC(=O)C(=O)[C@H](CCC(C)(F)F)NC(=O)c1cc(F)cnc1NC(=O)c1cccc(F)c1 [Example 34, N-[(1S)-4,4-difluoro-1-[2-(methylamino)-2-oxo-acetyl]pentyl]-5-fluoro-2-[(3-fluorobenzoyl)amino]pyridine-3-carboxamide]
- IC50: 23.8 nM

SMILES: CNC(=O)C(=O)[C@H](CCC(C)(F)F)NC(=O)c1cc(F)cnc1NC(=O)C12CC(F)(C1)C2 [Example 35, N-[(1S)-4,4-difluoro-1-[2-(methylamino)-2-oxo-acetyl]pentyl]-5-fluoro-2-[(3-fluorobicyclo[1.1.1]pentane-1-carbonyl)amino]pyridine-3-carboxamide]
- IC50: 23.9 nM

SMILES: CNC(=O)C(=O)[C@H](CCC(C)(F)F)NC(=O)c1cc(Cl)cnc1NC(=O)C1(C(F)(F)F)CC1 [Example 36, 5-chloro-N-[(1S)-4,4-difluoro-1-[2-(methylamino)-2-oxo-acetyl]pentyl]-2-[[1-(trifluoromethyl)cyclopropane-carbonyl]amino]pyridine-3-carboxamide]
- IC50: 24.4 nM

SMILES: CNC(=O)C(=O)[C@H](CCC(C)(F)F)NC(=O)c1cc(C#N)ccc1NC(=O)C12CC(C(F)(F)F)(C1)C2 [Example 37, N-[4-cyano-2-[[(1S)-4,4-difluoro-1-[2-(methylamino)-2-oxo-acetyl]pentyl]carbamoyl]phenyl]-3-(trifluoromethyl)bicyclo[1.1.1] pentane-1-carboxamide]
- IC50: 31.1 nM

SMILES: CNC(=O)C(=O)[C@H](CCC(C)(F)F)NC(=O)c1cc(Cl)cnc1NC(=O)C12CC(F)(C1)C2 [Example 38, 5-chloro-N-[(1S)-4,4-difluoro-1-[2-(methylamino)-2-oxo-acetyl]pentyl]-2-[(3-fluorobicyclo[1.1.1]pentane-1-carbonyl)amino]pyridine-3-carboxamide]
- IC50: 40.4 nM

SMILES: CC(F)(F)CC[C@H](NC(=O)c1cc(C(F)(F)F)cnc1NC(=O)c1cccc(C(F)(F)F)c1)C(=O)C(=O)NC1CC1 [Example 39, N-[(1S)-1-[2-(cyclopropylamino)-2-oxo-acetyl]-4,4-difluoro-pentyl]-5-(trifluoromethyl)-2-[[3-(trifluoromethyl)benzoyl]amino]pyridine-3-carboxamide]
- IC50: 40.9 nM

SMILES: CC(F)(F)CC[C@H](NC(=O)c1cc(F)cnc1NC(=O)c1cccc(F)c1)C(=O)C(=O)NC1CC1 [Example 40, N-[(1S)-1-[2-(cyclopropylamino)-2-oxo-acetyl]-4,4-difluoro-pentyl]-5-fluoro-2-[(3-fluorobenzoyl)amino]pyridine-3-carboxamide]
- IC50: 41.6 nM

SMILES: CNC(=O)C(=O)[C@H](CCC(C)(F)F)NC(=O)c1cc(C#N)ccc1NC(=O)c1cccc(F)c1 [Example 41, 5-cyano-N-[(1S)-4,4-difluoro-1-[2-(methylamino)-2-oxo-acetyl]pentyl]-2-[(3-fluorobenzoyl)amino]benzamide]
- IC50: 45.3 nM

SMILES: CNC(=O)C(=O)[C@H](CCC(C)(F)F)NC(=O)c1cc(F)ccc1NC(=O)C1(C(F)(F)F)CC1 [Example 42, N-[(1S)-4,4-difluoro-1-[2-(methylamino)-2-oxo-acetyl]pentyl]-5-fluoro-2-[[1-(trifluoromethyl)cyclopropane-carbonyl]amino]benzamide]
- IC50: 47 nM

SMILES: CNC(=O)C(=O)[C@H](CCC(C)(F)F)NC(=O)c1cc(F)cnc1NC(=O)C(C)(C)C [Example 43, N-[(1S)-4,4-difluoro-1-[2-(methylamino)-2-oxo-acetyl]pentyl]-2-(2,2-dimethylpropanoylamino)-5-fluoro-pyridine-3-carboxamide]
- IC50: 49.6 nM

SMILES: CC(F)(F)CC[C@H](NC(=O)c1cc(Cl)cnc1NC(=O)C1(C(F)(F)F)CC1)C(=O)C(=O)NC1CC1 [Example 44, 5-chloro-N-[(1S)-1-[2-(cyclopropylamino)-2-oxo-acetyl]-4,4-difluoro-pentyl]-2-[[1-(trifluoromethyl)cyclopropane-carbonyl]amino]pyridine-3-carboxamide]
- IC50: 50.4 nM

SMILES: Cc1cnc(NC(=O)c2cccc(C(F)(F)F)c2)c(C(=O)N[C@@H](CCC(C)(F)F)C(=O)C(=O)NC2CC2)c1 [Example 45, N-[(1S)-1-[2-(cyclopropylamino)-2-oxo-acetyl]-4,4-difluoro-pentyl]-5-methyl-2-[[3-(trifluoromethyl)benzoyl]amino]pyridine-3-carboxamide]
- IC50: 76.2 nM

SMILES: CC(F)(F)CC[C@H](NC(=O)c1cc(F)cnc1NC(=O)C(C)(C)C)C(=O)C(=O)NC1CC1 [Example 46, N-[(1S)-1-[2-(cyclopropylamino)-2-oxo-acetyl]-4,4-difluoro-pentyl]-2-(2,2-dimethylpropanoylamino)-5-fluoro-pyridine-3-carboxamide]
- IC50: 94.8 nM

SMILES: CNC(=O)C(=O)[C@H](CCC(C)(F)F)NC(=O)c1cc(Cl)ccc1NC(=O)C1CC1C(F)(F)F (stereo partly drawn) [Example 47, 5-chloro-N-[(1S)-4,4-difluoro-1-[2-(methylamino)-2-oxo-acetyl]pentyl]-2-[[2-(trifluoromethyl)cyclopropane-carbonyl]amino]benzamide]
- IC50: 20.5 nM

SMILES: CNC(=O)C(=O)[C@H](CCC(C)(F)F)NC(=O)c1cc(Cl)ccc1NC(=O)C1CC1C(F)(F)F (stereo partly drawn) [Example 48, 5-chloro-N-[(1S)-4,4-difluoro-1-[2-(methylamino)-2-oxo-acetyl]pentyl]-2-[[2-(trifluoromethyl)cyclopropane-carbonyl]amino]benzamide]
- IC50: 11.3 nM

SMILES: CNC(=O)C(=O)[C@H](CCC(C)(F)F)NC(=O)c1cc(Cl)ccc1NC(=O)OC [Example 49, methyl N-[4-chloro-2-[[(1S)-4,4-difluoro-1-[2-(methylamino)-2-oxo-acetyl]pentyl]carbamoyl]phenyl]carbamate]
- IC50: 7.1 nM

SMILES: CNC(=O)C(=O)[C@H](CCC(C)(F)F)NC(=O)c1cc(Cl)ccc1NC(=O)C1CN(C)C1 [Example 50, N-[4-chloro-2-[[(1S)-4,4-difluoro-1-[2-(methylamino)-2-oxo-acetyl]pentyl]carbamoyl]phenyl]-1-methyl-azetidine-3-carboxamide]
- IC50: 21.8 nM
